biological target: T1, human GPR68 (Homo sapiens, UniProt Q15743); test: GPR68 Biochemical Assay (Promega GloSensor cAMP assay, GPR68 antagonism); format: cell-based; conditions: HEK293T cells transiently expressing hGPR68, antagonism of pH 5.5 stimulated cAMP, 15 min, read-out: hGPR68 IC50
T1 construct: encoding full-length human GPR68 (uniprot ID: Q15743); expressed in transfected cells; host or cells: HEK293T
Protocol: GPR68 antagonism was determined using the Promega GloSensor™ CAMP assay (F. I. Wang et al., Methods 2021, S1046-2023 (21) 00249-8). HEK293T cells (obtained from ECACC, Cat 12022001, Lot no. 17E044) were cultured in T175 flasks (Greiner, Cat 660175) in DMEM (Gibco, Cat 11995-065) supplemented with 10% Fetal Bovine Serum (Gibco Cat 16000-044), and 100 u/mL Pen-Strep (Gibco, Cat 15140) at 37° C. and 5% CO2. GPR68 expression was achieved by transient transfection with a mammalian expression plasmid encoding full-length human GPR68 (uniprot ID: Q15743) under control of a CMV promoter. The day before transfection, cell media was aspirated and HEK293T cells were incubated with accutase (Sigma, Cat A6964) for 3-4 minutes 37° C. and 5% CO2 before being manually detached with excess DMEM and trituration. Cell density was determined by automated cell counting (Countess, Invitrogen) and adjusted to 6×10^6 cells/20 mL and transferred to 15 cm dishes (Thermo Fisher, Cat 130183) for overnight incubation at 37° C. and 5% CO2. The next day separate mammalian expression plasmids encoding hGPR68 (4 μg) and Promega GloSensor (8 μg) were diluted to 1 mL in Opti-MEM (Thermo Fisher Scientific, Cat 31985070) and incubated with 30 μL of lipofectamine 3000 (also diluted to 1 mL in Opti-MEM) for 15 minutes at room temperature and subsequently added dropwise to the plated cells. Post transfection cells were then incubated at 37° C. and 5% CO2 for at least 16 hours before transfer to assay plates the following day. Transfer was conducted by washing cells with PBS and incubating with accutase for 3-4 minutes 37° C. and 5% CO2 before being manually detached with excess DMEM and mild trituration. The suspension was then centrifuged at 192 RCF for 4 minutes in a 50 mL centrifuge tube (Greiner, Cat 227261).
Supernatant was removed by aspiration and the cell pellet was resuspended in DMEM+1% dialysed FBS (Gibco, Cat 26400-044) and 100 u/mL Pen-Strep to a cell density of 500 cells/μL. Cells were plated into poly-L-Lysine coated 384-well white assay plates (Corning, Cat 3570) at a final volume of 40 µL and a density of 20,000 cells/well before overnight incubation at 37° C. and 5% CO2. The following day media was manually ejected from the 384-well assay plate and replaced with 10 μL GloSensor substrate (Promega, Cat E1291) prepared in pH 8.0 assay buffer (1×HBSS, 10 mM HEPES, 10 mM MOPS). Cells were incubated with this solution for 60 minutes at room temperature in the dark. Test compounds or an equivalent volume of DMSO (vehicle) were added to compounds plates to create a 9-point, half-log concentration series for each compound with a maximum final assay concentration of 50 μM and a consistent final DMSO concentration of 0.5%. Assay buffer with 0.1% BSA and 0.01% ascorbic acid was prepared at three pHs: pH 8.0, pH 5.5 and pH 4.5. pH 8.0 and 4.5 were added to the compound plate as maximum and minimum effect controls whilst pH 5.5 was added to all compound wells to stimulate GPR68 to a level corresponding to […] of maximal stimulation after addition to the cells already in pH 8.0 (assay acceptance criteria range 70-90%). DMSO/Compound and buffer was added to the plated cells containing the GloSensor substrate and incubated for 15 minutes at room temperature before being read on a microplate reader (BMG PHERAstar, optic module LUM Plus with Gain 3600). Data was exported and analysed in excel and Graphpad prism (version 9). Assay QC acceptance criteria required the maximum and minimum controls to return a Z′≥0.5, the EC80 to be 80%±10% of expected and the reference ligand pIC50 to be within one-half-log unit of its historical IC50. Percent inhibition was calculated using the mean EC80 (pH 5.5) and mean minimum effect control (pH 8.0). Data were plotted as percentage inhibition, average±SEM. IC50, Emax, Emin, Actual max, actual min, R^2 and fit confidence were calculated using Graphpad Prism's sigmoidal dose-response function.

T1 sequence (Q15743 whole entry): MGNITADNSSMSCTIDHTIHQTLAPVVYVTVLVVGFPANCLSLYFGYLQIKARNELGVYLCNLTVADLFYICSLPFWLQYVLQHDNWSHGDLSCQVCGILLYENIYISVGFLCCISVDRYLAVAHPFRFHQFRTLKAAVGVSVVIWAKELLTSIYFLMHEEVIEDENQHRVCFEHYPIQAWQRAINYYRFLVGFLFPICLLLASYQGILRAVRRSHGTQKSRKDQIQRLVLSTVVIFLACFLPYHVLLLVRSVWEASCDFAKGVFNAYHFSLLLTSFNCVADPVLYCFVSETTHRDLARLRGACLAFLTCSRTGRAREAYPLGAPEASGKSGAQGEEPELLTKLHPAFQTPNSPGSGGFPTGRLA

SMILES	IC50
NC(=O)c1cnn2c(C(=O)NCCC(F)(F)F)ccnc12 [Compound 100, N7-(3,3,3-trifluoropropyl)pyrazolo[1,5-a]pyrimidine-3,7-dicarboxamide]	5000 to 50000 nM
Cc1ccc(-c2ccncc2)cc1NC(=O)c1ccnc2c(C(N)=O)cnn12 [Compound 97, N7-[2-methyl-5-(pyridin-4-yl)phenyl]pyrazolo[1,5-a]pyrimidine-3,7-dicarboxamide]	500 to 5000 nM
NC(=O)c1cnn2c(C(=O)NC3CNc4ccccc4C3)ccnc12 (stereo not shown) [Compound 5, N7-(1,2,3,4-tetrahydroquinolin-3-yl)pyrazolo[1,5-a]pyrimidine-3,7-dicarboxamide]	500 to 5000 nM
NC(=O)c1cnn2c(C(=O)NC3Cc4cccc(Oc5ccc(Cl)cc5)c4C3)ccnc12 (stereo not shown) [Compound 16, N7-[4-(4-chlorophenoxy)indan-2-yl]pyrazolo[1,5-a]pyrimidine-3,7-dicarboxamide]	50000 to 100000 nM
COCc1nc2c(C(=O)NCc3ccc(F)cc3)ccnn2c1C(N)=O [Compound 110, N8-[(4-fluorophenyl)methyl]-2-(methoxymethyl)imidazo[1,2-b]pyridazine-3,8-dicarboxamide]	< 50 nM
CNc1nn2c(C(=O)NC3Cc4ccccc4C3)ccnc2c1C(N)=O [Compound 159, N7-indan-2-yl-2-(methylamino)pyrazolo[1,5-a]pyrimidine-3,7-dicarboxamide]	< 50 nM
NC(=O)c1cnn2c(C(=O)NCC3CCC(F)(F)CC3)ccnc12 [Compound 101, N7-[(4,4-difluorocyclohexyl)methyl]pyrazolo[1,5-a]pyrimidine-3,7-dicarboxamide]	500 to 5000 nM
NC(=O)c1c(COCF)nn2c(C(=O)N[C@H]3C[C@@H](OC(F)(F)F)C3)ccnc12 [Compound 158, 2-(fluoromethoxymethyl)-N7-[cis-3-(trifluoromethoxy)cyclobutyl]pyrazolo[1,5-a]pyrimidine-3,7-dicarboxamide]	< 50 nM
NC(=O)c1c(CO)nn2c(C(=O)NC3CC(F)(F)C3)ccnc12 [Compound 207, N7-(3,3-difluorocyclobutyl)-2-(hydroxymethyl)pyrazolo[1,5-a]pyrimidine-3,7-dicarboxamide]	500 to 5000 nM
NC(=O)c1c(C2CC2)nn2c(C(=O)NC3Cc4ccccc4C3)ccnc12 [Compound 130, 2-cyclopropyl-N7-indan-2-yl-pyrazolo[1,5-a]pyrimidine-3,7-dicarboxamide]	< 50 nM
[2H]C([2H])([2H])OCc1nn2c(C(=O)N[C@H]3C[C@@H](OC(F)(F)F)C3)ccnc2c1C(N)=O [Compound 157, 2-(trideuteriomethoxymethyl)-N7-[cis-3-(trifluoromethoxy)cyclobutyl]pyrazolo[1,5-a]pyrimidine-3,7-dicarboxamide]	< 50 nM
COCc1nc2c(C(=O)NC3CCC(F)(F)CC3)cc(C)nn2c1C(N)=O [Compound 218, N8-(4,4-difluorocyclohexyl)-2-(methoxymethyl)-6-methyl-imidazo[1,2-b]pyridazine-3,8-dicarboxamide]	50 to 500 nM
COCc1nn2c(C(=O)NCC3(N(C)C)CCCCC3)ccnc2c1C(N)=O [Compound 90, N7-[[1-(dimethylamino)cyclohexyl]methyl]-2-(methoxymethyl)pyrazolo[1,5-a]pyrimidine-3,7-dicarboxamide]	50000 to 100000 nM
NC(=O)c1c(C2CC2)nc2c(C(=O)N[C@H]3C[C@@H](OC(F)(F)F)C3)ccnn12 [Compound 151, 2-cyclopropyl-N8-[cis-3-(trifluoromethoxy)cyclobutyl]imidazo[1,2-b]pyridazine-3,8-dicarboxamide]	< 50 nM
NC(=O)c1c(-c2ncco2)nn2c(C(=O)NC3CC(F)(F)C3)ccnc12 [Compound 25, N7-(3,3-difluorocyclobutyl)-2-oxazol-2-yl-pyrazolo[1,5-a]pyrimidine-3,7-dicarboxamide]	500 to 5000 nM

Now from value to compound:

IC50	SMILES
< 50 nM	COCc1nn2c(C(=O)NCc3ccc(C)cc3)ccnc2c1C(N)=O [Compound 72, 2-(methoxymethyl)-N7-(p-tolylmethyl)pyrazolo[1,5-a]pyrimidine-3,7-dicarboxamide]
< 50 nM	COCc1nn2c(C(=S)NC3Cc4ccccc4C3)ccnc2c1C(N)=O [Compound 148, 7-(indan-2-ylcarbamothioyl)-2-(methoxymethyl)pyrazolo[1,5-a]pyrimidine-3-carboxamide]
< 50 nM	COCc1nn2c(C(=O)N[C@H]3CCc4ccccc43)ccnc2c1C(N)=O [Compound 183, 2-(methoxymethyl)-N7-[(1S)-indan-1-yl]pyrazolo[1,5-a]pyrimidine-3,7-dicarboxamide]
< 50 nM	COCc1nn2c(C(=O)NC3COc4c(F)cccc43)ccnc2c1C(N)=O (stereo not shown) [Compound 192, N7-(7-fluoro-2,3-dihydrobenzofuran-3-yl)-2-(methoxymethyl)pyrazolo[1,5-a]pyrimidine-3,7-dicarboxamide]
< 50 nM	COCc1nn2c(C(=O)NCc3ccc(F)cc3F)ccnc2c1C(N)=O [Compound 83, N7-[(2,4-difluorophenyl)methyl]-2-(methoxymethyl)pyrazolo[1,5-a]pyrimidine-3,7-dicarboxamide]
< 50 nM	COCc1nn2c(C(=O)NC3CNc4ccccc4C3)ccnc2c1C(N)=O (stereo not shown) [Compound 93, 2-(methoxymethyl)-N7-(1,2,3,4-tetrahydroquinolin-3-yl)pyrazolo[1,5-a]pyrimidine-3,7-dicarboxamide]
< 50 nM	COCc1nn2c(C(=O)N[C@H]3COc4c3ccc(F)c4F)ccnc2c1C(N)=O [Compound 119, 2-(methoxymethyl)-N7-[(3R)-6,7-difluoro-2,3-dihydrobenzofuran-3-yl]pyrazolo[1,5-a]pyrimidine-3,7-dicarboxamide]
< 50 nM	COCc1nn2c(C(=O)NC3COc4ccc(F)cc4C3)ccnc2c1C(N)=O (stereo not shown) [Compound 196, N7-(6-fluorochroman-3-yl)-2-(methoxymethyl)pyrazolo[1,5-a]pyrimidine-3,7-dicarboxamide]
500 to 5000 nM	COCc1nn2c(C(=O)NC3CCC(C)(C)c4ccccc43)ccnc2c1C(N)=O (stereo not shown) [Compound 186, N7-(4,4-dimethyltetralin-1-yl)-2-(methoxymethyl)pyrazolo[1,5-a]pyrimidine-3,7-dicarboxamide]
< 50 nM	COCc1nn2c(C(=O)NC3COc4ccc(Cl)cc4C3)ccnc2c1C(N)=O (stereo not shown) [Compound 114, N7-(6-chlorochroman-3-yl)-2-(methoxymethyl)pyrazolo[1,5-a]pyrimidine-3,7-dicarboxamide]
< 50 nM	COCc1nn2c(C(=O)NC3COc4ncccc43)ccnc2c1C(N)=O (stereo not shown) [Compound 184, N7-(2,3-dihydrofuro[2,3-b]pyridin-3-yl)-2-(methoxymethyl)pyrazolo[1,5-a]pyrimidine-3,7-dicarboxamide]
< 50 nM	COCc1nn2c(C(=O)N[C@H]3CCc4ccccc4C3)ccnc2c1C(N)=O [Compound 79, 2-(methoxymethyl)-N7-[(2S)-tetralin-2-yl]pyrazolo[1,5-a]pyrimidine-3,7-dicarboxamide]

same assay, conditions: hGPR68 IC50, HEK293T cells transiently expressing hGPR68, antagonism of pH 5.5 stimulated cAMP, 15 min

IC50	SMILES
< 50 nM	NC(=O)c1c(-c2ncco2)nn2c(C(=O)NC3Cc4ccccc4C3)ccnc12 [Compound 33, N7-indan-2-yl-2-oxazol-2-yl-pyrazolo[1,5-a]pyrimidine-3,7-dicarboxamide]

Source: patent publication US20260308159A1, “BICYCLIC HETEROARYLAMIDES HAVING GPR68 MODULATING ACTIVITY” (RECURSION PHARMACEUTICALS, INC., priority 2023, published 2026)
